Experimental data as given in publication PMC3874807 (Bioorganic & medicinal chemistry letters, 2013).

Target: BpIspF (Burkholderia pseudomallei, UniProt Q3JRA0)
Test: biochemical
Format: binding

Chain of BpIspF (Q3JRA0 whole entry, looked up): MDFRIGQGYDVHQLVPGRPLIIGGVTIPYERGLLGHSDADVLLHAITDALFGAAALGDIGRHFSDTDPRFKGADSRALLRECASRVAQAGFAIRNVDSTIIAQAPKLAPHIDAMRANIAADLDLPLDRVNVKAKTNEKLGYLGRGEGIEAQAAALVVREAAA

SMILES: Oc1ccc(-n2ccnc2)cc1 [FOL955]
- Kd: > 500 µM
